Experimental data: patent publication US10865257B2, “Production methods for aqueous emulsion, fine powder and stretched porous body of modified polytetrafluoroethylene” (AGC Inc., priority 2015, dated 2020)

Assay: LogPOW, distribution coefficient in 1-octanol and water (OECD Test Guideline 107, 117; JIS Z7260-107)
Assay type: physicochemical
Conditions: 1-octanol/water (1:1) distribution coefficient
From the text: In the present invention, a fluorinated anionic surfactant having a LogPOW of from 2.4 to 3.4 is used. The LogPOW is a distribution coefficient in 1-octanol and water as stipulated in OECD Test Guideline 107, 117 and Japanese Industrial Standard Z7260-107 (2000).
At the time when a mixed liquid of octanol/water (1:1) each containing a surfactant to be measured, is phase-separated, POW represents a ratio of the surfactant concentration in octanol/the surfactant concentration in water. A surfactant having a large distribution coefficient value has a high bioaccumulation property, and a surfactant having a small distribution coefficient value has a low bioaccumulation property. When the LogPOW is 3.4 or less, the bioaccumulation property is judged to be low. By the measurement conducted by the present inventors, the LogPOW of APFO was 3.67.

SMILES	logP
O=C(O)C(F)(F)OC(F)(F)C(F)(F)OC(F)(F)C(F)(F)F [APFDO, ammonium perfluoro-3,6-dioxaoctanoate]	3.1
O=C(O)C(F)(F)C(F)(F)C(F)(F)C(F)(F)C(F)(F)C(F)(F)C(F)(F)F [APFO, ammonium perfluorooctanoate]	3.67
